Measurements taken from PMC11395612, “DPP-IV Inhibitory Peptide against In Vitro Gastrointestinal Digestion Derived from Goat’s Milk Protein and Its Activity Enhancement via Amino Acid Substitution” (Foods, 2024).
pIC50: −log10 of the molar value. “Also recorded” adds a separate entry of the source. Like-named read-outs stand apart in the source and are kept apart here.

Columns and labels:
DPP-IV [1] = target: T1, DPP-IV (Homo sapiens, UniProt P27487); format: cell-based
T1 construct: host or cells: Caco-2 cells

Caco-2 cells = conditions: 4 h
[2] = In vitro simulated gastrointestinal digestion of goat milk; format: in vitro ADME; conditions: in vitro gastric (pepsin, pH 2.0, 60 min) then intestinal digestion (pH 7.0), 30 min, LC-MS/MS
Method: Goat milk was subjected to simulated gastrointestinal digestion according to the in vitro digestion protocol described by Xue et al.. Artificial gastric fluid from goat milk was mixed in a 1:1 ratio, followed by the addition of 120 μL CaCl2(H2O)2. The pH of the resulting solution was adjusted to 2.0 using HCl. The solution was then divided into centrifuge tubes, with each tube containing 20 mL of the solution. The tubes were placed in a water bath (FYDKH3, Shanghai Hengyi Scientific Instrument Co., Shanghai, China) and subjected to shock for five min for pre-heating. Subsequently, pepsin was added and dissolved in simulated gastric fluid (SGF). After preheating, 1 mL enzyme solution was added to each tube to initiate the in vitro digestion process. Digestion time intervals were established at 0, 10, 30, 60, 90, and 120 min. Additionally, the pH of the digestion solution was adjusted to 8.0, using NaOH solution to deactivate the enzyme following digestion. After gastric digestion for 60 min followed by enzyme inactivation, an artificial intestinal solution was added at a ratio of 1:1. The subsequent experimental procedures were identical to those previously described. The pH of the solution was adjusted to 7.0. Digestion time intervals were set at 0, 0.5, 5, 10, 30, and 60 min. […]
LC-MS/MS was determined as described by Sun et al.. […]

DPP-IV [3] = conditions: MBPDB database assignment, cited from earlier work
Source text: Among them, the DPP-IV inhibitory peptide fragment derived from milk serum albumin may be rapidly degraded in vivo due to low structural stability, leading to loss of activity.

DPP-IV [4] = conditions: ref [32], cited from earlier work
Source text: In the process of in vitro digestion, potential active peptide fragments harboring in food proteins may be degraded by digestive enzymes, but the peptide fragment selected in this study still has DPP-IV inhibitory activity after digestion, which is a digestion-resistant peptide fragment with a molecular weight of about 1kDa. Some reported that DPP-IV inhibitory peptides tend to be active peptides with 2–8 amino acid residues and a molecular weight of less than 1 kDa. The DPP-IV inhibition and metabolic stability of casein-derived peptide Val-Pro-Tyr-Pro-Gln (VPYPQ) and its fragments, an ...

[5] = ref [23] in Table 1 for VGINYWLAHK and ILDKVGINYWLAHK

T1 sequence (P27487 whole entry): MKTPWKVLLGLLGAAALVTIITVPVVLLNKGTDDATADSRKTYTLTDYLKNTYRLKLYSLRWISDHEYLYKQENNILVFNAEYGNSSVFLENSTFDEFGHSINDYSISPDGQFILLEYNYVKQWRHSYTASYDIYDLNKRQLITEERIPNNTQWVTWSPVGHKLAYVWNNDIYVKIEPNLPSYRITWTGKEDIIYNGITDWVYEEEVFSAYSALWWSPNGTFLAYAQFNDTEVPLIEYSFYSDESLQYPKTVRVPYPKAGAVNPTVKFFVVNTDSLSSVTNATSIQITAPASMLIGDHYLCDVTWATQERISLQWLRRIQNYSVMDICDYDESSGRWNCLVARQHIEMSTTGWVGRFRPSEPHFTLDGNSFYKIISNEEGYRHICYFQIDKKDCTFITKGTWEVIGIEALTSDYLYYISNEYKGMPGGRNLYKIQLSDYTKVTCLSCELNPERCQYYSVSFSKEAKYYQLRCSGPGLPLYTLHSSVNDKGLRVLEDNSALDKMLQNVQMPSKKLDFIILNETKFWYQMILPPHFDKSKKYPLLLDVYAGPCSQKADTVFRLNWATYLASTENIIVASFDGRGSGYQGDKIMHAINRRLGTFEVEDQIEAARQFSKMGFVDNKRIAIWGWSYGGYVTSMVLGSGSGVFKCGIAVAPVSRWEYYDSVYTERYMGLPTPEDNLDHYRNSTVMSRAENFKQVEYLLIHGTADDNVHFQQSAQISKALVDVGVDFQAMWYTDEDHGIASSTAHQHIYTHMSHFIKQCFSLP

| Substance | DPP-IV inhibition rate (DPP-IV [1]) | DPP-IV inhibitory effect, in words (DPP-IV [1]) | cellular activity (cell viability) (Caco-2 cells; 0.5 mg/mL) | cellular activity (cell viability) (Caco-2 cells; 1 mg/mL) | DPP-IV inhibitory activity, in words (DPP-IV [3]; [5]) | other results |
| --- | --- | --- | --- | --- | --- | --- |
| H-IIDKVGINY-OH [II] | 79.20 ± 2.20% | significant enhancement of DPP-IV inhibitory activity; also recorded: strongest; also recorded: increased the hydrophobic force and inhibitory activity | 90.34 ± 2.08% | 85.51 ± 3.52% | – | – |
| H-ILDKVGINY-OH [IL] | 73.44 ± 2.23% | – | 91.91 ± 5.763% | 86 ± 3.911% | – | resistance to digestion / activity after digestion, in words [2]: high in content and resistance to digestion; resistance to digestion / activity after digestion, in words ([2]; listed as ILDKVGINY): retaining its activity following digestion; DPP-IV inhibitory activity, in words (DPP-IV [3]; ref [23] in Table 1 for […] and […]): displayed DPP-IV inhibitory activity |
| H-IPDKVGINY-OH [IP] | 60.37 ± 3.04% | weakest; also recorded: lower inhibition rate | 91.88 ± 5.385% | 84.46 ± 2.928% | – | – |
| ILDKVGINYWLAHK | – | – | – | – | displayed DPP-IV inhibitory activity | – |
| VGINYWLAHK | – | – | – | – | displayed DPP-IV inhibitory activity | – |
| Val-Pro-Tyr-Pro-Gln [VPYPQ, casein-derived peptide] | – | – | – | – | – | DPP-IV inhibitory activity, in words (DPP-IV [4]; among VPYPQ and its fragments): strongest DPP-IV inhibitory peptide; pIC50 (DPP-IV [4]; casein-derived peptide, read-out: IC50 of DPP-IV inhibition): 4.38 |
